Common to all, as to experiment: Competitive isoTOP-ABPP in situ (fragment-treated cells)
Holding throughout (type): cell-based

For assay [1], the target named is cysteines in MDA-MB-231 and Ramos cells (Homo sapiens, UniProt Q9BRJ7).
In assay [2] the target is T1, cysteines in MDA-MB-231 and Ramos cells (Homo sapiens, UniProt Q8WV74).
T1 sequence (Q8WV74 1-236): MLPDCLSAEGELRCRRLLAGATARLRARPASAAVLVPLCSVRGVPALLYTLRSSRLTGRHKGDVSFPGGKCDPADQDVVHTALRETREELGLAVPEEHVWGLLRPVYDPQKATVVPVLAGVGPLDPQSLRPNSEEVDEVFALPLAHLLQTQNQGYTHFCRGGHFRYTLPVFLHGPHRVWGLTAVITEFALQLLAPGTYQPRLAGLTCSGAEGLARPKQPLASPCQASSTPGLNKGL

In assay [3] the target is cysteines in MDA-MB-231 and Ramos cells (Homo sapiens, UniProt Q15149).
The target of assay [4] is cysteines in MDA-MB-231 and Ramos cells (Homo sapiens, UniProt Q96N67).
Sequence of cysteines in MDA-MB-231 and Ramos cells (Homo sapiens, UniProt Q96N67) (Q96N67 whole entry): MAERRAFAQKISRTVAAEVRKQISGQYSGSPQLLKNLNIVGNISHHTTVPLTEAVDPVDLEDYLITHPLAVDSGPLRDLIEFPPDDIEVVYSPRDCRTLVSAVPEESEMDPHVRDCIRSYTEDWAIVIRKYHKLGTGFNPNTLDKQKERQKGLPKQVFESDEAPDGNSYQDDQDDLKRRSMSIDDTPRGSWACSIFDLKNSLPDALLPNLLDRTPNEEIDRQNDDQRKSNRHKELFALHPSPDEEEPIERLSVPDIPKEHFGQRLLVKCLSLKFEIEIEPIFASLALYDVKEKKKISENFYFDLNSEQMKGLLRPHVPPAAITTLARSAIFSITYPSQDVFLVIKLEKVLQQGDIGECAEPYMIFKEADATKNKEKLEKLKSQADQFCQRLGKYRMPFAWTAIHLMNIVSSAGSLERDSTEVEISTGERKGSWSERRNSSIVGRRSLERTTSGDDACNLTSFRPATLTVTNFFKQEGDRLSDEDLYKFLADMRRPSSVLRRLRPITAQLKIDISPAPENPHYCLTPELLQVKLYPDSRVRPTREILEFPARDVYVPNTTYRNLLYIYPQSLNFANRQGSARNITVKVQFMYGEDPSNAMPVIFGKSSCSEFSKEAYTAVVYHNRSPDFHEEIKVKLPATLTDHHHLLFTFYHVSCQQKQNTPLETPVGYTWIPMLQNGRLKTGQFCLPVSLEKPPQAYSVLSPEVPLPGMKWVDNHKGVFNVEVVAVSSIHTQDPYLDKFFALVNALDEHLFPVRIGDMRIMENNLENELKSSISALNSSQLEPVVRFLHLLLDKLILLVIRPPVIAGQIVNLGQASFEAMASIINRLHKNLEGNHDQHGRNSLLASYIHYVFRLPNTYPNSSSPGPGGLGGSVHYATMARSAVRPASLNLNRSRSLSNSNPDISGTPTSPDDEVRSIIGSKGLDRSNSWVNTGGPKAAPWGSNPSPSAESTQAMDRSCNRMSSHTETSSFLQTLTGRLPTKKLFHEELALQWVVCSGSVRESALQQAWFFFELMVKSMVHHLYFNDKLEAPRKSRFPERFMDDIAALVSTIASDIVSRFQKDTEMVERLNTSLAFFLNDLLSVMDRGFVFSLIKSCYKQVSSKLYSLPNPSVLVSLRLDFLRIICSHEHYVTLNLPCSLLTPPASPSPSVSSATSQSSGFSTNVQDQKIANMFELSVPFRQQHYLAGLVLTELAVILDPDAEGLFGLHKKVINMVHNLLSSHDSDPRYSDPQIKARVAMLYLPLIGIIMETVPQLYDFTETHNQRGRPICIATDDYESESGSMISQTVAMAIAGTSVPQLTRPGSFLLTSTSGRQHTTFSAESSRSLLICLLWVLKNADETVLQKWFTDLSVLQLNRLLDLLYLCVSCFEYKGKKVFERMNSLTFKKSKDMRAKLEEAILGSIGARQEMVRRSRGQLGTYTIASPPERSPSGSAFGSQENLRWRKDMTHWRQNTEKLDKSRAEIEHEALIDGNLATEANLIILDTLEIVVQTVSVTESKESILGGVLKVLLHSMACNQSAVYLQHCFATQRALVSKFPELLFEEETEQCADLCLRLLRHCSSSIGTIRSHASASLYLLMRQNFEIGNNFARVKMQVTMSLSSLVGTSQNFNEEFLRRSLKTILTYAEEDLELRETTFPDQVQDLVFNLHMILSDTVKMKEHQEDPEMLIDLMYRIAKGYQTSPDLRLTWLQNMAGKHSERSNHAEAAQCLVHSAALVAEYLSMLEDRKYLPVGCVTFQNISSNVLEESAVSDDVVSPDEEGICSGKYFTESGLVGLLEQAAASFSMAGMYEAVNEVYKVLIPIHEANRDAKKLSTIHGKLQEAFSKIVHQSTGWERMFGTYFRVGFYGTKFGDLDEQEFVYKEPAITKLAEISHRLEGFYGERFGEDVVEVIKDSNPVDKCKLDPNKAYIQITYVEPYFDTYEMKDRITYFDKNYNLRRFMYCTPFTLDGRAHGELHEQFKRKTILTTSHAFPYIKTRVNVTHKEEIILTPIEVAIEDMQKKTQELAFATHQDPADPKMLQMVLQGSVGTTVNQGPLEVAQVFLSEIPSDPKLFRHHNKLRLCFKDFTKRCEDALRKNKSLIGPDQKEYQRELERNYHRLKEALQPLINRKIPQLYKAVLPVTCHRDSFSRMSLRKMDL
In assay [5] the target is T2, cysteines in MDA-MB-231 and Ramos cells (Homo sapiens, UniProt O14929).
T2 sequence (O14929 1-419): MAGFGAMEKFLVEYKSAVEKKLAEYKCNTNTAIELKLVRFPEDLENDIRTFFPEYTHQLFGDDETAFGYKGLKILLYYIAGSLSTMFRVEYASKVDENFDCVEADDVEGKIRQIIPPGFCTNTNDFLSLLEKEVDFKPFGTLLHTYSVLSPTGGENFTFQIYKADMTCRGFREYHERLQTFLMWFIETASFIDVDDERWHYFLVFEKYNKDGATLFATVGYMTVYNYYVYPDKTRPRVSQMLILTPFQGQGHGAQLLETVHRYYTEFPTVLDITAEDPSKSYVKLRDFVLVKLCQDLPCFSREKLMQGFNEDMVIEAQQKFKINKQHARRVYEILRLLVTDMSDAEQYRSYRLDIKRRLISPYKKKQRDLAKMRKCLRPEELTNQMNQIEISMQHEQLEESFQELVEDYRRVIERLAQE

The target in assay [6] is cysteines in MDA-MB-231 and Ramos cells (Homo sapiens, UniProt P52948). The settings on record: 200 μM, insitu, 231.
Sequence of cysteines in MDA-MB-231 and Ramos cells (Homo sapiens, UniProt P52948) (P52948 whole entry): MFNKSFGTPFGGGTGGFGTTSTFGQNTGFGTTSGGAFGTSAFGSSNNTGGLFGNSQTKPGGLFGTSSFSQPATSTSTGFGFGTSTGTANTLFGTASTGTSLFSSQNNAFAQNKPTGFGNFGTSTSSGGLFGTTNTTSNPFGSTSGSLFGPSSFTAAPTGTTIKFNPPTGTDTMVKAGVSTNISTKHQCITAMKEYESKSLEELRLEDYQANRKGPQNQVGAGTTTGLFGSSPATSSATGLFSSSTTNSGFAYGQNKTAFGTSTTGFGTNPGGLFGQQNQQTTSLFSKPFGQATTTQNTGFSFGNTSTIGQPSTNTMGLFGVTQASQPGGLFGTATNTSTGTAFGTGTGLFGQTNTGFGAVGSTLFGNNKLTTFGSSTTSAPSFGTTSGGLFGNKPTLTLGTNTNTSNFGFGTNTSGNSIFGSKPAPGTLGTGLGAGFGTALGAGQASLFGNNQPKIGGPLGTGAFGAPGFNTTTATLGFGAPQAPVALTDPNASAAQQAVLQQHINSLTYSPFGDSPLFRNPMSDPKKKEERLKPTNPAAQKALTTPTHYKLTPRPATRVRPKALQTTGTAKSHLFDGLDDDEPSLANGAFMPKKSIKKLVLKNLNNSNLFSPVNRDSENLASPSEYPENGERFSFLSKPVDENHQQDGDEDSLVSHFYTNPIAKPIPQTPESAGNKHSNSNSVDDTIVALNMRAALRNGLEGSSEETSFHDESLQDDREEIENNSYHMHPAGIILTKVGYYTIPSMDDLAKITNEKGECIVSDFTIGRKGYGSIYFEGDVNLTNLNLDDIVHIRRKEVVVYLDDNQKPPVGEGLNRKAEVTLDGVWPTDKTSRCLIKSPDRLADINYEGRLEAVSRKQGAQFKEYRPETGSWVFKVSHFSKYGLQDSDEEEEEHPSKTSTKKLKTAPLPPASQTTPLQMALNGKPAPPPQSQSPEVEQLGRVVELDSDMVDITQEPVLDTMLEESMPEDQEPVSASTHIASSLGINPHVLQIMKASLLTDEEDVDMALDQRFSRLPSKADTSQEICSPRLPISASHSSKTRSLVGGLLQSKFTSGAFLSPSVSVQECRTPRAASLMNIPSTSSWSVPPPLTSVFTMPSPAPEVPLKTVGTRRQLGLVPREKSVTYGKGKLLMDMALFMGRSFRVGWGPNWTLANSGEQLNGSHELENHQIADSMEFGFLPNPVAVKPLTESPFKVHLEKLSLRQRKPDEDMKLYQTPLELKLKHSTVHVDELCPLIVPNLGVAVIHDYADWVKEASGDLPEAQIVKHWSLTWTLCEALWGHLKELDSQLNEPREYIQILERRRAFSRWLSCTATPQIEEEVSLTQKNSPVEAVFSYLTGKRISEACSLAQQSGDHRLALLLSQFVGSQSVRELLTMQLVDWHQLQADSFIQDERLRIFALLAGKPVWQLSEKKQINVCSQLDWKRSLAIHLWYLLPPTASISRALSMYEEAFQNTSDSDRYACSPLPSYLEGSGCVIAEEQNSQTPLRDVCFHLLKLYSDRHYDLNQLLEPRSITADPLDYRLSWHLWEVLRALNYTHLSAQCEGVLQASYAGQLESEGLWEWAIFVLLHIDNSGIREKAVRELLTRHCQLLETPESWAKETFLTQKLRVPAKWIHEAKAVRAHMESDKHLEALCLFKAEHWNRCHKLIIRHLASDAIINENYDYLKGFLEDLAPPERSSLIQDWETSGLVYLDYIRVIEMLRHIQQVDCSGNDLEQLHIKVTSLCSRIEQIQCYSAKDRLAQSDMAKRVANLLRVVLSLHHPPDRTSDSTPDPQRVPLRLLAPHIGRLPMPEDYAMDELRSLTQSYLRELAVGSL
For assay [7], the target named is T3, cysteines in MDA-MB-231 and Ramos cells (Homo sapiens, UniProt Q9NXV6).
T3 sequence (Q9NXV6 1-580): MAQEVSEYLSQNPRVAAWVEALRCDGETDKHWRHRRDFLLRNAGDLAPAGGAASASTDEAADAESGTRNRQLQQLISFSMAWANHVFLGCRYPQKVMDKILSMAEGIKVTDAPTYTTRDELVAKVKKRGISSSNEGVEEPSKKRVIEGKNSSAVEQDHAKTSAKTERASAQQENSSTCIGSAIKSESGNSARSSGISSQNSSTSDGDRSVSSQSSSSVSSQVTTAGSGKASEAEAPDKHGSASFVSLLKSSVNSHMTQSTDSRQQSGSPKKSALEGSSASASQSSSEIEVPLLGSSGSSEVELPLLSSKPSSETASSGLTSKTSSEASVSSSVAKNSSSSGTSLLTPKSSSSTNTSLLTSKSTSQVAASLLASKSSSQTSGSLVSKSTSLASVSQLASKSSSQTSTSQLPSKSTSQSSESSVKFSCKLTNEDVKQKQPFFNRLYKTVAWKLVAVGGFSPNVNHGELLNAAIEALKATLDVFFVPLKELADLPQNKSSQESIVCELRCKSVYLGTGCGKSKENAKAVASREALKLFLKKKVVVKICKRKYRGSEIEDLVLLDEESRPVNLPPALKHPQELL

Sequence of cysteines in MDA-MB-231 and Ramos cells (Homo sapiens, UniProt Q9BRJ7) (Q9BRJ7 whole entry): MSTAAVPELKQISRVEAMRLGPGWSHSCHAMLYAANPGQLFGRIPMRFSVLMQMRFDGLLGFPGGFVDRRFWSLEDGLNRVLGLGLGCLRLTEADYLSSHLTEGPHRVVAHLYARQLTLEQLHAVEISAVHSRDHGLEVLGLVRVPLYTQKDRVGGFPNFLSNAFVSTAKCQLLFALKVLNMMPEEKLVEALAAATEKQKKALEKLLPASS

On to `COc1ccc(C2CC(c3cccs3)=NN2C(=O)CCl)cc1` (centres unmarked) [compound 4], for which the “isoTOP-ABPP reactivity Q9BRJ7_C88 NUDT16L1” value in assay [1] (100 μM in situ 231) came to 20.0. For the same molecule, the “isoTOP-ABPP reactivity Q8WV74_C207 NUDT8” value in assay [2] (100 μM in situ 231) turned out to be 20.0. The “isoTOP-ABPP reactivity Q15149_C4574 PLEC” value in assay [3] (100 μM in situ 231) worked out at 4.2. Moreover, the “isoTOP-ABPP reactivity Q96N67_C2125 DOCK7” value in assay [4] (100 μM in situ 231) is given as 4.1.
Regarding `O=C(CCl)Nc1cccc2ncccc12` [compound 51], the “isoTOP-ABPP ratio Q9BRJ7_C88” value in assay [1] (200 μM, insitu, 231) amounted to 1.0.
On to `CC1CCc2ccccc2N1C(=O)CCl` (centres unmarked) [compound 45], for which the “isoTOP-ABPP ratio Q9BRJ7_C88” value in assay [1] (200 μM, insitu, 231) came out at 1.6. For the same molecule, in assay [2] (200 μM, insitu, 231), the “isoTOP-ABPP ratio Q8WV74_C207” value is 20.0. Also, in assay [5] (200 μM, insitu, 231), the “isoTOP-ABPP ratio O14929_C101” value turned out to be 20.0.
Turning to `O=C(CCl)NC(=O)NC12CC3CC(CC(C3)C1)C2` [compound 12], in assay [6], the “isoTOP-ABPP ratio, cysteine P52948_C1312” value was determined as 20.0. Further, in assay [5] (200 μM, insitu, 231), the “isoTOP-ABPP ratio O14929_C101” value was 20.0. Besides, the “isoTOP-ABPP ratio Q9NXV6_C516” value in assay [7] (200 μM, insitu, 231) stood at 3.3.
For `O=C(CCl)N1CCN(S(=O)(=O)c2ccccc2F)CC1` [compound 10], in assay [1] (200 μM, insitu, 231), the “isoTOP-ABPP ratio, cysteine Q9BRJ7_C88” value was 20.0. The “isoTOP-ABPP ratio, cysteine P52948_C1312” value in assay [6] came out at 20.0. In addition, the “isoTOP-ABPP ratio, cysteine Q8WV74_C207” value in assay [2] (200 μM, insitu, ramos) was found to be 20.0. Also, in assay [5] (200 μM, insitu, 231), the “isoTOP-ABPP ratio O14929_C101” value was 20.0. The “isoTOP-ABPP ratio, cysteine Q15149_C4574” value in assay [3] (200 μM, insitu, 231) is given as 2.2. Besides, in assay [7] (200 μM, insitu, 231), the “isoTOP-ABPP ratio Q9NXV6_C516” value was 7.7.
Take `O=C(CCl)N1CCN(CC(=O)N2CCOCC2)CC1` [compound 29]: in assay [5] (200 μM, insitu, ramos), the “isoTOP-ABPP ratio O14929_C101” value is 1.0. Moreover, the “isoTOP-ABPP ratio Q9NXV6_C516” value in assay [7] (200 μM, insitu, ramos) was found to be 1.1.
With `CC(C)CCOCCNC(=O)CCl` [compound 27], in assay [6], the “isoTOP-ABPP ratio P52948_C1312” value amounted to 1.3. Moreover, the “isoTOP-ABPP ratio Q8WV74_C207” value in assay [2] (200 μM, insitu, 231) came to 2.2. In addition, the “isoTOP-ABPP ratio Q15149_C4574” value in assay [3] (200 μM, insitu, 231) turned out to be 1.3. Besides, the “isoTOP-ABPP ratio Q9NXV6_C516” value in assay [7] (200 μM, insitu, 231) was 1.4. In assay [4] (200 μM, insitu, 231), the “isoTOP-ABPP ratio Q96N67_C2125” value was determined as 0.9.
With `O=C(CCl)N1CCC(Cc2ccccc2)CC1` [compound 9], in assay [5] (200 μM, insitu, 231), the “isoTOP-ABPP reactivity O14929_C101 HAT1” value was determined as 9.0. The “isoTOP-ABPP reactivity Q15149_C4574 PLEC” value in assay [3] (200 μM, insitu, 231) worked out at 0.8. In assay [7] (200 μM, insitu, 231), the “isoTOP-ABPP reactivity Q9NXV6_C516 CDKN2AEP” value is 6.6.
Turning to `O=C(CCl)NC12CC3CC(CC(C3)C1)C2` [compound 21], the “isoTOP-ABPP ratio, cysteine P52948_C1312” value in assay [6] came to 1.1. Further, the “isoTOP-ABPP ratio O14929_C101” value in assay [5] (200 μM, insitu, 231) was 1.2. In assay [3] (200 μM, insitu, 231), the “isoTOP-ABPP ratio, cysteine Q15149_C4574” value was 1.0. Moreover, the “isoTOP-ABPP ratio Q9NXV6_C516” value in assay [7] (200 μM, insitu, 231) worked out at 0.8.
Turning to `COc1ccc2c(c1)CCCN2C(=O)CCl` [compound 2], in assay [1] (200 μM, insitu, 231), the “isoTOP-ABPP reactivity Q9BRJ7_C88 NUDT16L1” value amounted to 20.0. Also, the “isoTOP-ABPP reactivity Q8WV74_C207 NUDT8” value in assay [2] (200 μM, insitu, 231) is 20.0. The “isoTOP-ABPP reactivity Q9NXV6_C516 CDKN2AEP” value in assay [7] (200 μM, insitu, 231) was 20.0.
Turning to `Cn1cc(S(=O)(=O)N2CCOCC2)cc1C(=O)NC(=O)CCl` [compound 11], in assay [5] (100 μM in situ 231), the “isoTOP-ABPP ratio O14929_C101” value stood at 0.8. Further, the “isoTOP-ABPP ratio, cysteine Q15149_C4574” value in assay [3] (100 μM in situ 231) is on record as 1.1. The “isoTOP-ABPP ratio Q9NXV6_C516” value in assay [7] (100 μM in situ 231) is reported as 1.0.
Regarding `COc1ccccc1OCCNC(=O)CCl` [compound 28], the “isoTOP-ABPP ratio Q9BRJ7_C88” value in assay [1] (200 μM, insitu, 231) is 1.7.
For the molecule `O=C(CCl)NCCc1c[nH]c2ccccc12` [compound 13], in assay [6], the “isoTOP-ABPP ratio, cysteine P52948_C1312” value worked out at 1.2. For the same molecule, the “isoTOP-ABPP ratio, cysteine Q8WV74_C207” value in assay [2] (200 μM, insitu, 231) was determined as 13.1. The “isoTOP-ABPP ratio O14929_C101” value in assay [5] (200 μM, insitu, 231) is reported as 0.9; in assay [5] (200 μM, insitu, ramos), 1.2. Also, the “isoTOP-ABPP ratio, cysteine Q15149_C4574” value in assay [3] (200 μM, insitu, 231) is on record as 1.4. Besides, the “isoTOP-ABPP ratio Q9NXV6_C516” value in assay [7] (200 μM, insitu, 231) was 2.4; in assay [7] (200 μM, insitu, ramos), 1.6.
For `Cc1ccc(C=C(C#N)C(=O)NCCN2CCOCC2)cc1` [compound 41], the “isoTOP-ABPP ratio Q8WV74_C207” value in assay [2] (200 μM, insitu, 231) was 0.9. Besides, the “isoTOP-ABPP ratio O14929_C101” value in assay [5] (200 μM, insitu, 231) stood at 0.6. In addition, the “isoTOP-ABPP ratio Q15149_C4574” value in assay [3] (200 μM, insitu, 231) is 0.9. Further, the “isoTOP-ABPP ratio Q9NXV6_C516” value in assay [7] (200 μM, insitu, 231) is reported as 0.9. Further, in assay [4] (200 μM, insitu, 231), the “isoTOP-ABPP ratio Q96N67_C2125” value was determined as 0.7.
Take `C=CC(=O)Nc1cc(F)c(N2CCN(C(=O)OC(C)(C)C)CC2)c(F)c1` [compound 38]: in assay [1] (200 μM, insitu, 231), the “isoTOP-ABPP ratio Q9BRJ7_C88” value is recorded as 0.4. For the same molecule, the “isoTOP-ABPP ratio P52948_C1312” value in assay [6] is recorded as 1.3. In addition, the “isoTOP-ABPP ratio O14929_C101” value in assay [5] (200 μM, insitu, 231) turned out to be 1.1. In addition, the “isoTOP-ABPP ratio Q9NXV6_C516” value in assay [7] (200 μM, insitu, 231) is given as 1.8. In addition, in assay [4] (200 μM, insitu, 231), the “isoTOP-ABPP ratio Q96N67_C2125” value came to 1.5.
Regarding `C=CC(=O)N(Cc1cccnc1)c1cc(C(F)(F)F)cc(C(F)(F)F)c1` [compound 31], the “isoTOP-ABPP ratio Q9BRJ7_C88” value in assay [1] (200 μM, insitu, 231) was 2.9. Also, the “isoTOP-ABPP ratio Q96N67_C2125” value in assay [4] (200 μM, insitu, 231) is reported as 0.8.
For `COc1cc2c(cc1OC)CN(C(=O)CCl)CC2` [compound 8], the “isoTOP-ABPP reactivity Q8WV74_C207 NUDT8” value in assay [2] (200 μM, insitu, 231) came to 20.0. The “isoTOP-ABPP reactivity Q96N67_C2125 DOCK7” value in assay [4] (200 μM, insitu, 231) stood at 5.4.

The values are drawn from US10670605B2, “Cysteine reactive probes and uses thereof” (The Scripps Research Institute, priority 2015, dated 2020).
